Consider 32 compounds from US12509467B2 (Hoffmann-La Roche Inc., priority 2020, dated 2025).

Structures are written as SMILES.

By IC50 is commonly meant the concentration that inhibits the measured activity by half.

The target of the first test is T1, human cGAS (residues 161-522) (Homo sapiens, UniProt Q8N884).
T1 construct: Recombinantly expressed purified human cGAS (residues 161-522) was used at 25 nM; made in house
T1 sequence (Q8N884 161-522): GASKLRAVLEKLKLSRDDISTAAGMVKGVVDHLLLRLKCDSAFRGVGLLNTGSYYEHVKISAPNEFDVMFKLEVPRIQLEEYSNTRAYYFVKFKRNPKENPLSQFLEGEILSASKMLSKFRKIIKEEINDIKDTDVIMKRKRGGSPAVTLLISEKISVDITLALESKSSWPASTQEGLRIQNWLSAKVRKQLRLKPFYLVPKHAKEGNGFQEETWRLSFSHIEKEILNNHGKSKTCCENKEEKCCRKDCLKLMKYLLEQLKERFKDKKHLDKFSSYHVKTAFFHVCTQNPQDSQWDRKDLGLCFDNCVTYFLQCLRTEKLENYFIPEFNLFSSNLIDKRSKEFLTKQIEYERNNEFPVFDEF
The test can be described thus: cGAS Activity Assay—Malachite Green. The format is biochemical.
Conditions: not given
As for the experimental part:
Compounds were tested for cGAS inhibition in a coupled enzymatic assay based on Phosphate detection by Malachite Green. Final assay conditions were 20 mM TRIS pH 7.5 (Applichem), 5 mM MgCl2 (Sigma) and 0.01% BSA (Sigma) supplemented with 80 μM ATP (Sigma), 80 μM GTP (Sigma) and 100 nM Interferon Stimulating DNA (ISD) (Microsynth).
1 μL of DMSO dilution series was transferred to 32.3 μL reaction buffer, mixed by pipetting up/down, spun for 1 minute at 3000 rpm and was visually inspected for precipitation. 5 μL of 3-fold enzyme stock solution were transferred to an empty 384-well Black/Clear Flat Bottom Polystyrene NBS (Corning) rows 3-24. Rows 1-2 were filled with assay buffer. Plates were spun 10 seconds at 1000 rpm (164×g). 5 μL of compound intermediate dilution was added and mixed by pipetting up/down to rows 3-24. Rows 1-2 were filled with 3.1% DMSO assay buffer. Plates were spun 10 seconds at 1000 rpm (164×g). 5 μL 3-fold Nucleotide/DNA mix was added to all wells to start the reaction. Plates were spun 10 seconds at 1000 rpm (164×g) and incubated for 4 hour at room temperature (RT) in the dark. 5 μL 4 U/mL PPase (Sigma) were added to all wells. Plates spun 10 seconds at 1000 rpm (164×g). 10 μL BioMol green Solution (Enzo Life Sciences) was added to all wells. Plates spun 10 seconds at 1000 rpm (164×g) and incubated 30 minutes at RT in the dark. Absorbance data was collected 620 nm on an EnVision Multilable Reader (Perkin Elmer) and the following measurement settings were used: excitation filter photometric was 620 nm; excitation from the top; measurement height was 1 mm; number of flashes was 30; number of flashes integrated was 1.
All plates are checked for abnormalities and outliers in the Blank Control (no protein, row 1) and the Neutral Control (no compound, row 2) are excluded using the 3*SD rule.
Table 5 provides IC50 values (μM) for cGAS inhibition obtained for particular examples of the present invention as measured by the above-described assay.
Take `CC(Nc1nc2[nH]c(C(F)(F)F)cc(=O)n2n1)c1ccc(Cl)cc1Cl` (centres unmarked) [Example 77, 2-[1-(2,4-dichlorophenyl)ethyl-amino]-5-(trifluoromethyl)-4H-[1,2,4]triazolo[1,5-a]pyrimidin-7-one]: the IC50 came out at 8410 nM.
The compound `CCCc1cc(=O)n2nc(NCc3ccc(C(C)C)cc3)nc2[nH]1` [Example 55, 2-[(4-propan-2-ylphenyl)meth-ylamino]-5-propyl-4H-[1,2,4]-triazolo[1,5-a]pyrimidin-7-one] came in with an IC50 of 1590 nM.
Consider `CCCCc1cc(=O)n2nc(NCc3cc(N4CC5(COC5)C4)ncc3Cl)nc2[nH]1` [Example 97, 5-Butyl-2-[[5-chloro-2-(2-oxa-6-azaspiro[3.3]heptan-6-yl)-4-pyridyl]methylamino]-4H-[1,2,4]triazolo[1,5-a]pyrimidin-7-one], for which 128 nM corresponded to half-maximal inhibition (IC50).
The same measure, in the same setting: the same measure for `CCCc1cc(=O)n2nc(NCc3cc(-c4cn(C)cn4)ccc3Cl)nc2[nH]1` [Example 30, 2-[[2-chloro-5-(1-methylimid-azol-4-yl)phenyl]methylamino]-5-propyl-4H-[1,2,4]triazolo[1,5-a]pyrimidin-7-one]: 444 nM; for `CCCc1cc(=O)n2nc(NCc3cc(-c4ccn(C)n4)ccc3Cl)nc2[nH]1` [Example 57, 2-[[2-chloro-5-(1-methylpyrazol-3-yl)phenyl]methylamino]-5-propyl-4H-[1,2,4]triazolo[1,5-a]pyrimidin-7-one]: 533 nM; for `CCCc1cc(=O)n2nc(NCc3ccc(OCC(F)(F)F)cc3)nc2[nH]1` [Example 8, 5-propyl-2-[[4-(2,2,2-trifluoro-ethoxy)phenyl]methyllamino]-4H-[1,2,4]triazolo[1,5-a]-pyrimidin-7-one]: 7780 nM.

Still in this test, the particulars now being: cGAS inhibition; 25 nM cGAS, 80 μM ATP, 80 μM GTP, 100 nM ISD, 4 hour at RT, Malachite Green phosphate detection; read-out: IC50 cGAS.
As to `CCCc1cc(=O)n2nc(NCc3ccc(N4CCOCC4)cc3)nc2[nH]1` [Example 42, 2-[(4-morpholinophenyl)meth-amino]-5-propyl-4H-[1,2,4]-triazolo[1,5-a]pyrimidin-7-one], the IC50 was found to be 2130 nM.
Regarding `CCc1cc(=O)n2nc(NCc3ccc(Cl)cc3Cl)nc2[nH]1` [Example 37, 2-[(2,4-dichlorophenyl)methyl-amino]-5-ethyl-4H-[1,2,4]-triazolo[1,5-a]pyrimidin-7-one], the IC50 turned out to be 5160 nM.
On to `CCCCc1cc(=O)n2nc(NCc3cnn(-c4cnccn4)c3)nc2[nH]1` [Example 45, 5-butyl-2-[(1-pyrazin-2-ylpyr-azol-4-yl)methylamino]-4H-[1,2,4]triazolo[1,5-a]pyrimidin-7-one], for which the IC50 was determined as 3530 nM.
Still for that read-out and setting: the result for `CCCCc1cc(=O)n2nc(NCc3cc(-c4ccccc4)nn3C)nc2[nH]1` [Example 44, 5-butyl-2-[(2-methyl-5-phenyl-pyrazol-3-yl)methylamino]-4H-[1,2,4]triazolo[1,5-a]pyrimidin-7-one] reads 6570 nM; that for `CCCc1cc(=O)n2nc(NCc3cccc(-c4ccccc4)c3)nc2[nH]1` [Example 16, 2-[(3-phenylphenyl)methyl-amino]-5-propyl-4H-[1,2,4]-triazolo[1,5-a]pyrimidin-7-one], 2560 nM.
Turning to `CCCc1cc(=O)n2nc(NCc3ccc(OC)cc3Cl)nc2[nH]1` [Example 69, 2-[(2-chloro-4-methoxyphen-yl)methylamino]-5-propyl-4H-[1,2,4]triazolo[1,5-a]pyrimidin-7-one], the IC50 is 9510 nM.
The same measure, in the same setting: the result for `CCCc1cc(=O)n2nc(NCc3ccc4ncccc4c3)nc2[nH]1` [Example 22, 5-propyl-2-(6-quinolylmethyl-amino)-4H-[1,2,4]triazolo[1,5-a]pyrimidin-7-one] reads 3000 nM; that for `CCCc1cc(=O)n2nc(NCc3cc(-c4ccncn4)ccc3Cl)nc2[nH]1` [Example 38, 2-[(2-chloro-5-pyrimidin-4-yl-phenyl)methylamino]-5-propyl-4H-[1,2,4]triazolo[1,5-a]-pyrimidin-7-one], 277 nM.
On the same count and under the same terms, the same measure for `O=c1cc(CC2CCC2)[nH]c2nc(NCc3ccc(Cl)cc3Cl)nn12` [Example 65]: 1590 nM; for `CCCc1cc(=O)n2nc(NCc3cc(-c4cncnc4)ccc3Cl)nc2[nH]1` [Example 36, 2-[(2-chloro-5-pyrimidin-5-yl-phenyl)methylamino]-5-propyl-4H-[1,2,4]triazolo[1,5-a]-pyrimidin-7-one]: 392 nM; for `CCCc1cc(=O)n2nc(NCc3cc(-c4ccn(C)n4)ccc3C#N)nc2[nH]1` [Example 84, 4-(1-methylpyrazol-3-yl)-2-[[(7-oxo-5-propyl-4H-[1,2,4]-triazolo[1,5-a]pyrimidin-2-yl)amino]methyl]benzonitrile]: 1150 nM.
On to `CCCc1cc(=O)n2nc(NCc3ccc(OC)cc3C)nc2[nH]1` [Example 70, 2-[(4-methoxy-2-methylphen-yl)methylamino]-5-propyl-4H-[1,2,4]triazolo[1,5-a]pyrimidin-7-one], for which the IC50 is 3640 nM.
Still for that read-out and setting: the result for `CCCc1cc(=O)n2nc(NCc3ccc(-c4ncccn4)cc3)nc2[nH]1` [Example 2, 5-propyl-2-[(4-pyrimidin-2-yl-phenyl)methylamino]-4H-[1,2,4]-triazolo[1,5-a]pyrimidin-7-one;] reads 4380 nM; that for `CCCc1cc(=O)n2nc(NCc3ccc(OC)cc3F)nc2[nH]1` [Example 6, 2-[(2-fluoro-4-methoxyphenyl)-methylamino]-5-propyl-4H-[1,2,4]triazolo[1,5-a]pyrimidin-7-one], 2910 nM.
Consider `CCCc1cc(=O)n2nc(NCc3ccc(-c4ccn(C)n4)cc3)nc2[nH]1` [Example 14, 2-[[4-(1-methylpyrazol-3-yl)-phenyl]methylamino]-5-propyl-4H-[1,2,4]triazolo[1,5-a]-pyrimidin-7-one], for which the IC50 came out at 4920 nM.
On to `CCCc1cc(=O)n2nc(NCc3cc(-c4ncccn4)ccc3Cl)nc2[nH]1` [Example 43, 2-[(2-chloro-5-pyrimidin-2-yl-phenyl)methylamino]-5-propyl-4H-[1,2,4]triazolo[1,5-a]-pyrimidin-7-one], for which the IC50 amounted to 326 nM.
For the compound `CCCc1cc(=O)n2nc(NCc3cc(N4CCCCC4)ncc3Cl)nc2[nH]1` [Example 94, 2-[[5-chloro-2-(1-piperidyl)-4-pyridyl]methylamino]-5-propyl-4H-[1,2,4]triazolo[1,5-a]pyrimidin-7-one], the IC50 stood at 2550 nM.
As for `O=c1cc(Cc2ccccc2)[nH]c2nc(NCc3cc(-c4ccncc4)ccc3Cl)nn12` [Example 31, 5-benzyl-2-[[2-chloro-5-(4-pyridyl)phenyl]methylamino]-4H-[1,2,4]triazolo[1,5-a]-pyrimidin-7-one], the IC50 worked out at 78 nM.
Take `CCCc1cc(=O)n2nc(NCc3ccc(Cl)cc3C)nc2[nH]1` [Example 66, 2-[(4-chloro-2-methylphenyl)-methylamino]-5-propyl-4H-[1,2,4]triazolo[1,5-a]pyrimidin-7-one]: the IC50 came out at 9280 nM.
For `CCCc1cc(=O)n2nc(NCc3cc(-c4ccn(C)n4)ccn3)nc2[nH]1` [Example 82, 2-[[4-(1-methylpyrazol-3-yl)-2-pyridyl]methylamino]-5-propyl-4H-[1,2,4]triazolo-[1,5-a]pyrimidin-7-one], the IC50 was 1490 nM.
As to `O=c1cc(CC2CCC2)[nH]c2nc(NCc3ccc(-c4ccccc4)cc3)nn12` [Example 3, 5-(cyclobutylmethyl)-2-[(4-phen-ylphenyl)methylamino]-4H-[1,2,4]triazolo[1,5-a]pyrimidin-7-one], the IC50 amounted to 1570 nM.
In the case of `CCCc1cc(=O)n2nc(NCc3ccc(-n4ccnc4)cc3)nc2[nH]1` [Example 9, 2-[(4-imidazol-1-ylphenyl)meth-ylamino]-5-propyl-4H-[1,2,4]-triazolo[1,5-a]pyrimidin-7-one], the IC50 is 4010 nM.
Consider `O=c1cc(C(F)(F)F)[nH]c2nc(NCc3ccc(-c4ccccc4)cc3)nn12` [Example 75, 2-[(4-phenylphenyl)methyl-amino]-5-(trifluoromethyl)-4H-[1,2,4]triazolo[1,5-a]pyrimidin-7-one], for which the IC50 was 827 nM.
With `CCCc1cc(=O)n2nc(NCc3cc(-c4cnn(C)c4)ccc3Cl)nc2[nH]1` [Example 24, 2-[[2-chloro-5-(1-methylpyrazol-4-yl)phenyl]methylamino]-5-propyl-4H-[1,2,4]triazolo[1,5-a]pyrimidin-7-one], the IC50 amounted to 401 nM.
Turning to `CCCCc1cc(=O)n2nc(NCc3nc(N4CCOCC4)ncc3Cl)nc2[nH]1` [Example 98, 5-Butyl-2-[(5-chloro-2-morpholino-pyrimidin-4-yl)methylamino]-4H-[1,2,4]triazolo[1,5-a]pyrimidin-7-one], the IC50 is 435 nM.
As for `CCCc1cc(=O)n2nc(NCc3ccc(-n4cccn4)cc3)nc2[nH]1` [Example 5, 5-propyl-2-[(4-pyrazol-1-yl-phenyl)methylamino]-4H-[1,2,4]-triazolo[1,5-a]pyrimidin-7-one], the IC50 is 4010 nM.
